Like-named read-outs stand apart in the source and are kept apart here.
Tests used:
HEK-293 cells = experiment: HEK-293 cytotoxicity detection (CellTiter-Glo); format: cell-based; conditions: HEK-293 cells, 72 h incubation, CellTiter-Glo luminescence, IC50 of cell proliferation inhibition, read-out: HEK293
Method in brief: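 Four-parameter logistic fitting of percent inhibition versus concentration gives IC50. Luminescent ATP read-out (CellTiter-Glo) after 72 h compound treatment of HEK-293 cells, 8 doses in 4-fold steps from a 5 mM 500× DMSO stock, final DMSO 0.2%.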

BTK = target: T1, BTK (Homo sapiens, UniProt Q06187); experiment: BTK degradation in TMD-8 cells (HTRF assay); format: cell-based; conditions: 6 h treatment, IC50 (DC50) of BTK degradation
T1 construct: High control=Cell group with added DMSO and without compound, indicating microplate readings without BTK degradation; endogenous in cells; host or cells: TMD-8
Method in brief: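 BTK remaining after compound treatment was measured by HTRF (337 nm excitation, 665/620 nm emission) in lysates of TMD-8 cells. Cells were exposed for 6 h to eight 6-fold-spaced concentrations in 0.2% DMSO. DC50 values were obtained from a Hill-equation fit (top, bottom, slope) of % inhibition.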

T1 sequence (Q06187 whole entry): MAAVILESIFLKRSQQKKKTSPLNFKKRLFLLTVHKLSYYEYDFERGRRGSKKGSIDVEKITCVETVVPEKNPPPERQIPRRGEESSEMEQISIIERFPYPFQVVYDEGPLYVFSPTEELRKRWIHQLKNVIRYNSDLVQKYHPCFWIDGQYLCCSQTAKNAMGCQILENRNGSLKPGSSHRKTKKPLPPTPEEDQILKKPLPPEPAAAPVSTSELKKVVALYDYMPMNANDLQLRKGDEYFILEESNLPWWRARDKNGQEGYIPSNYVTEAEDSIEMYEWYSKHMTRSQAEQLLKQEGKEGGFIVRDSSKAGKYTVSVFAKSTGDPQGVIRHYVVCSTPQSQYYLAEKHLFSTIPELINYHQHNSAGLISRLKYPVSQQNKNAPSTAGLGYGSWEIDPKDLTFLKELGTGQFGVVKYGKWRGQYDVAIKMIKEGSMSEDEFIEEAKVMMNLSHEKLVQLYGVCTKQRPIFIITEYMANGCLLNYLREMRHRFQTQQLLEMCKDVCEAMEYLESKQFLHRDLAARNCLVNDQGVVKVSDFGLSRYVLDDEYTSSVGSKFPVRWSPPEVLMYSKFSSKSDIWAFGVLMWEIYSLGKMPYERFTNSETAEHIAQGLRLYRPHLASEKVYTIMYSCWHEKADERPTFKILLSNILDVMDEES

Compound | IC50 (HEK-293 cells; Homo sapiens) [µM] | DC50 (BTK) [nM] | IC50 (HEK-293 cells) [µM]
Cc1cc(-c2ncnc3[nH]c4cc(N5CCC6(CC5)CCN([C@H]5C[C@@H](c7ccc([C@H]8CCC(=O)NC8=O)cc7)C5)CC6)ccc4c23)ccc1[C@@H](C)NC(=O)c1nc(C(C)(C)C)no1 [Example 113, 3-(tert-butyl)-N—((R)-1-(4-(7-(9-((1S,3s)-3-(4-((R)-2,6-dioxopiperidin-3-yl)phenyl)cyclobutyl)-3,9-diazaspiro[5.5]undecan-3-yl)-9H-pyrimido[4,5-b]indol-4-yl)-2-methylphenyl)ethyl)-1,2,4-oxadiazole-5-carboxamide] | 1.12 | 3.46 | –
Cc1cc(-c2ncnc3[nH]c4cc(N5CCN(C6CC(c7ccc([C@H]8CCC(=O)NC8=O)cc7)C6)CC5)ccc4c23)c(F)cc1[C@@H](C)NC(=O)c1nc(C(C)(C)C)no1 (stereo partly drawn) [Example 26, 3-(tert-butyl)-N—((R)-1-(4-(7-(4-(3-(4-((R)-2,6-dioxopiperidin-3-yl)phenyl)cyclobutyl)piperazin-1-yl)-9H-pyrimido[4,5-b]indol-4-yl)-5-fluoro-2-methylphenyl)ethyl)-1,2,4-oxadiazole-5-carboxamide] | > 10 | 2.2 | –
Cc1cc(-c2ncnc3[nH]c4cc(N5CCC6(CCN(CC7CCN(c8ccc(N9CCC(=O)NC9=O)cc8)CC7)CC6)CC5)ccc4c23)ccc1[C@@H](C)NC(=O)c1nc(C(C)(C)C)no1 [Example 114, (R)-3-(tert-butyl)-N-(1-(4-(7-(9-((1-(4-(2,4-dioxotetrahydropyrimidin-1(2H)-yl)phenyl)piperidin-4-yl)methyl)-3,9-diazaspiro[5.5]undecan-3-yl)-9H-pyrimido[4,5-b]indol-4-yl)-2-methylphenyl)ethyl)-1,2,4-oxadiazole-5-carboxamide] | 0.923 | 1.89 | –
COc1cc2c(cc1N1CCN(CC3CCN(c4ccc(N5CCC(=O)NC5=O)cc4)CC3)CC1)[nH]c1ncnc(-c3ccc([C@@H](C)NC(=O)c4noc(C(C)(C)C)n4)c(C)c3F)c12 [Example 58, (R)-5-(tert-butyl)-N-(1-(4-(7-(4-((1-(4-(2,4-dioxotetrahydropyrimidin-1(2H)-yl)phenyl)piperidin-4-yl)methyl)piperazin-1-yl)-6-methoxy-9H-pyrimido[4,5-b]indol-4-yl)-3-fluoro-2-methylphenyl)ethyl)-1,2,4-oxadiazole-3-carboxamide] | > 10 | 1.87 | –
Cc1cc(-c2ncnc3[nH]c4cc(N5CCC6(CC5)CCN(C5CC(c7ccc(N[C@@H]8CCC(=O)NC8=O)cc7)C5)CC6)ccc4c23)ccc1[C@@H](C)NC(=O)c1nc(C(C)(C)C)no1 (stereo partly drawn) [Example 107, 3-(tert-butyl)-N—((R)-1-(4-(7-(9-((1S,3r)-3-(4-(((S)-2,6-dioxopiperidin-3-yl)amino)phenyl)cyclobutyl)-3,9-diazaspiro[5.5]undecan-3-yl)-9H-pyrimido[4,5-b]indol-4-yl)-2-methylphenyl)ethyl)-1,2,4-oxadiazole-5-carboxamide] | – | 2.99 | 1.03
CC(C)(C)c1noc(C(=O)NC(C)(C)C2CCN(c3ncnc4[nH]c5cc(N6CCN(CC7CCN(c8ccc(N9CCC(=O)NC9=O)cc8)CC7)CC6)ccc5c34)CC2)n1 [Example 131, 3-(tert-butyl)-N-(2-(1-(7-(4-((1-(4-(2,4-dioxotetrahydropyrimidin-1(2H)-yl)phenyl)piperidin-4-yl)methyl)piperazin-1-yl)-9H-pyrimido[4,5-b]indol-4-yl)piperidin-4-yl)propan-2-yl)-1,2,4-oxadiazole-5-carboxamide] | > 10 | 27.5 | –
Cc1cc(-c2ncnc3[nH]c4cc(C5CCN(CC6CCN(c7ccc(N8CCC(=O)NC8=O)cc7)CC6)CC5)ccc4c23)ccc1CNC(=O)c1nc(C(C)(C)C)no1 [Example 4, 3-(tert-butyl)-N-(4-(7-(1-((1-(4-(2,4-dioxotetrahydropyrimidin-1(2H)-yl)phenyl)piperidin-4-yl)methyl)piperidin-4-yl)-9H-pyrimido[4,5-b]indol-4-yl)-2-methylbenzyl)-1,2,4-oxadiazole-5-carboxamide] | 3.66 | 0.294 | –
Cc1cc(-c2ncnc3[nH]c4cc(N5CCN(CC6CN(c7ccc(N8CCC(=O)NC8=O)cc7)C6)CC5)ccc4c23)ccc1[C@@H](C)NC(=O)c1nc(C2(C)CC2)no1 [Example 126, (R)—N-(1-(4-(7-(4-((1-(4-(2,4-dioxotetrahydropyrimidin-1(2H)-yl)phenyl)azetidin-3-yl)methyl)piperazin-1-yl)-9H-pyrimido[4,5-b]indol-4-yl)-2-methylphenyl)ethyl)-3-(1-methylcyclopropyl)-1,2,4-oxadiazole-5-carboxamide] | > 10 | 0.449 | –
COc1cc2c(cc1N1CCN(C3CC(c4ccc([C@H]5CCC(=O)NC5=O)cc4)C3)CC1)[nH]c1ncnc(-c3ccc([C@@H](C)NC(=O)c4nc(C(C)(C)C)no4)c(C)c3)c12 (stereo partly drawn) [Example 50, 3-(tert-butyl)-N—((R)-1-(4-(7-(4-(3-(4-((R)-2,6-dioxopiperidin-3-yl)phenyl)cyclobutyl)piperazin-1-yl)-6-methoxy-9H-pyrimido[4,5-b]indol-4-yl)-2-methylphenyl)ethyl)-1,2,4-oxadiazole-5-carboxamide] | > 10 | 0.171 | –
Cc1c([C@@H](C)NC(=O)c2noc(C(C)(C)C)n2)ccc(-c2ncnc3[nH]c4cc(N5CCN(C6CC(c7ccc(N8CCC(=O)NC8=O)cc7)C6)CC5)ccc4c23)c1F (stereo partly drawn) [Example 33, (R)-5-(tert-butyl)-N-(1-(4-(7-(4-(3-(4-(2,4-dioxotetrahydropyrimidin-1(2H)-yl)phenyl)cyclobutyl)piperazin-1-yl)-9H-pyrimido[4,5-b]indol-4-yl)-3-fluoro-2-methylphenyl)ethyl)-1,2,4-oxadiazole-3-carboxamide] | > 10 | 3.67 | –
COc1cc2c(cc1N1CCN(C3CC(c4ccc([C@H]5CCC(=O)NC5=O)cc4)C3)CC1)[nH]c1ncnc(-c3ccc([C@@H](C)NC(=O)c4noc(C(C)(C)C)n4)c(C)c3F)c12 (stereo partly drawn) [Example 60, 5-(tert-butyl)-N—((R)-1-(4-(7-(4-(3-(4-((R)-2,6-dioxopiperidin-3-yl)phenyl)cyclobutyl)piperazin-1-yl)-6-methoxy-9H-pyrimido[4,5-b]indol-4-yl)-3-fluoro-2-methylphenyl)ethyl)-1,2,4-oxadiazole-3-carboxamide] | > 10 | 4.97 | –
Cc1cc(-c2ncnc3[nH]c4cc(N5CCC6(CC5)CCN([C@H]5C[C@H](c7ccc([C@@H]8CCC(=O)NC8=O)cc7)C5)CC6)ccc4c23)ccc1[C@@H](C)NC(=O)c1nc(C(C)(C)C)no1 [Example 110, 3-(tert-butyl)-N—((R)-1-(4-(7-(9-((1S,3r)-3-(4-((S)-2,6-dioxopiperidin-3-yl)phenyl)cyclobutyl)-3,9-diazaspiro[5.5]undecan-3-yl)-9H-pyrimido[4,5-b]indol-4-yl)-2-methylphenyl)ethyl)-1,2,4-oxadiazole-5-carboxamide] | 2 | 1.25 | –
Cc1cc(-c2ncnc3[nH]c4cc(N5CCN(C6CC(c7ccc(C8CCC(=O)NC8=O)cc7)C6)CC5)ccc4c23)ccc1[C@@H](C)NC(=O)c1nc(C(C)(C)C)no1 (stereo partly drawn) [Example 15, 3-(tert-butyl)-N-((1R)-1-(4-(7-(4-(3-(4-(2,6-dioxopiperidin-3-yl)phenyl)cyclobutyl)piperazin-1-yl)-9H-pyrimido[4,5-b]indol-4-yl)-2-methylphenyl)ethyl)-1,2,4-oxadiazole-5-carboxamide] | > 10 | 0.616 | –
COc1cc2c(cc1N1CCN(CC3CC(c4ccc(C5CCC(=O)NC5=O)cc4)C3)CC1)[nH]c1ncnc(-c3ccc([C@@H](C)NC(=O)c4nc(C(C)(C)C)no4)c(C)c3)c12 (stereo partly drawn) [Example 47, 3-(tert-butyl)-N-((1R)-1-(4-(7-(4-((3-(4-(2,6-dioxopiperidin-3-yl)phenyl)cyclobutyl)methyl)piperazin-1-yl)-6-methoxy-9H-pyrimido[4,5-b]indol-4-yl)-2-methylphenyl)ethyl)-1,2,4-oxadiazole-5-carboxamide] | > 10 | 1.7 | –
Cc1cc(-c2ncnc3[nH]c4cc(N5CCN(CCc6ccc(C7CCC(=O)NC7=O)c(C)n6)CC5)ccc4c23)ccc1[C@@H](C)NC(=O)c1nc(C(C)(C)C)no1 (stereo partly drawn) [Example 16, 3-(tert-butyl)-N-((1R)-1-(4-(7-(4-(2-(5-(2,6-dioxopiperidin-3-yl)-6-methylpyridin-2-yl)ethyl)piperazin-1-yl)-9H-pyrimido[4,5-b]indol-4-yl)-2-methylphenyl)ethyl)-1,2,4-oxadiazole-5-carboxamide] | > 10 | 0.347 | –
Cc1cc(-c2ncnc3[nH]c4cc(C5=CCN(CC6CCN(c7ccc(N8CCC(=O)NC8=O)cc7)CC6)C5)ccc4c23)ccc1[C@@H](C)NC(=O)c1nc(C(C)(C)C)no1 [Example 10, (R)-3-(tert-butyl)-N-(1-(4-(7-(1-((1-(4-(2,4-dioxotetrahydropyrimidin-1(2H)-yl)phenyl)piperidin-4-yl)methyl)-2,5-dihydro-1H-pyrrol-3-yl)-9H-pyrimido[4,5-b]indol-4-yl)-2-methylphenyl)ethyl)-1,2,4-oxadiazole-5-carboxamide] | > 10 | 1.51 | –
Cc1cc(-c2ncnc3[nH]c4cc(N5CCN(CC6CCN(c7ccc(N8CCC(=O)NC8=O)cn7)CC6)CC5)ccc4c23)ccc1[C@@H](C)NC(=O)c1nc(C(C)(C)C)no1 [Example 7, (R)-3-(tert-butyl)-N-(1-(4-(7-(4-((1-(5-(2,4-dioxotetrahydropyrimidin-1(2H)-yl)pyridin-2-yl)piperidin-4-yl)methyl)piperazin-1-yl)-9H-pyrimido[4,5-b]indol-4-yl)-2-methylphenyl)ethyl)-1,2,4-oxadiazole-5-carboxamide] | > 10 | 1.27 | –

Source: patent US20240366770A1, “DEGRADATION OF BRUTON'S TYROSINE KINASE (BTK) BY CONJUGATION OF BTK INHIBITORS WITH E3 LIGASE LIGAND AND METHODS OF USE” (BeiGene Switzerland GmbH, priority 2021, published 2024)
